Experimental data from patent US20240208972A1, “LRRK2 INHIBITORS AND USES THEREOF” (NEURON23, INC., priority 2022, published 2024).

Experiments:
[1] = molecular target: T1, wt human LRRK2, catalytic site (Homo sapiens, UniProt Q5S007); experiment: TR-FRET LanthaScreen Tb Kinase Activity Assay, LRRK2 kinase inhibition; assay type: biochemical; details: 2 nM wt human LRRK2, 400 nM peptide, 38 μM ATP
T1 construct: wt human LRRK2, catalytic site, catalytic site (ThermoFisher/USA); purchased ThermoFisher
Outline: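 TR-FRET LanthaScreen format: 2 nM wt human LRRK2 catalytic domain with 400 nM fluorescein-ERM (LRRKtide) and 38 μM ATP in Kinase Buffer A, after 15 min compound preincubation. Reaction 120 min at RT, then EDTA plus Tb-anti-pLRRKtide antibody for 60 min; emission ratios analysed per kit protocol.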

[2] = Brain penetration (Kp,uu) in CD-1 mice, with plasma and brain tissue binding by equilibrium dialysis; assay type: in vivo; details: mouse, brain and plasma (unbound), male CD-1 mice, single IV bolus 1 mg/kg
Protocol: The compounds disclosed herein were tested on CD-1 mice for brain penetration (Kp, uu) according to the following procedures.
Nine male CD-1 mice were administered TEST COMPOUND by single intravenous bolus administration at 1 mg/kg. The vehicle used for IV study was 5% DMSO, 5% solutol, 20% PEG300 and 70% water. The detailed dosing and sampling regimens are described in the following tables.
1.0 mg of test compound was accurately weighed into a glass vial, and slowly added with 104 μL of DMSO and vortexed for 1 min. Then 104 μL of solutol was added and vortexed for 1 min. Then 415 μL of PEG300 was added and vortexed for 1 min. Then 1000 μL of water was added and vortexed for 1 min. Finally, 451 μL of water was added and vortexed for 1 min to get a clear solution.
The body weights were in the range from 28.81 to 31.25 g for males on the first dosing day. All animals received a single intravenous bolus administration of TEST COMPOUND from the tail vein.
Each blood collection (about 0.06 mL per time point) was performed from saphenous vein of each animal into pre-chilled commercial K2-EDTA tubes as anti-coagulant and placed on wet ice until centrifugation.
Plasma samples were then prepared by centrifuging the blood samples at approximately 4° C., 3200×g for 10 minutes. All plasma samples were then quickly frozen over dry ice and kept at −60° C. or lower until LC-MS/MS analysis.
Brain tissue was homogenized using homogenizing buffer (15 mM PBS (pH7.4): MeOH=2:1) at the ratio of 1:9 (1 g tissue with 9 mL buffer, the dilution ratio is 10). The tissue homogenate was kept at −60° C. or lower until LC-MS/MS analysis.
The concentrations of TEST COMPOUND in plasma and brain were determined by using an LC-MS/MS method.
The plasma and brain concentration of TEST COMPOUND in study animals was subjected to a non-compartmental pharmacokinetic analysis by using the Phoenix WinNonlin software program (version 6.3 or above, Pharsight). The linear/log trapezoidal rule was applied in obtaining the PK parameters.
Individual plasma and brain concentration values that were below the lower limit of quantitation (LLOQ) were excluded from the PK parameter calculation. The nominal dose levels and nominal sampling times were used in the calculation of all pharmacokinetic parameters.
Mouse Kp, uu=(% free in mouse brain*concentration in mouse brain)/(% free in mouse plasma*concentration in mouse plasma)
The dialysis apparatus was assembled according to the manufacturer's instruction. Each Cell was filled with 120 μL of spiked plasma sample and dialyzed against equal volume of dialysis buffer (PBS). The assay was performed in duplicate. The dialysis plates were sealed and incubated in an incubator at 37° C. with 5% CO2 and rotated at 100 rpm for 6 hours. At the end of incubation, the seals were removed and 50 μL of samples from both buffer and plasma chambers were transferred to a 96-well plate.
All calculations were carried out using Microsoft Excel. The concentrations of test compound and control compound in the buffer and plasma chambers were determined from peak area ratios (PAR) of analyte to internal standard. Protein binding (% unbound and % bound) and recovery (% recovery) of test and control compounds was calculated as follows:
• 1. Thawing of the frozen brain (stored at −80° C.) • Frozen brain tissue was thawed at room temperature in a bath. Only brain tissue was used that was thawed no more than once. • 2. Preparation of brain tissue homogenate • Brain tissue homogenate was prepared by diluting one quantity (g) of the whole brain tissue with three volumes (mL) of buffer (PBS, pH 7.4) and homogenizing the mixture using a tissue homogenizer. Brain tissue homogenate was frozen at −80° C. for later use/comparison. • 3. Preparation of working solutions • The working solutions of test compound and the control compound propranolol were prepared in dimethyl sulfoxide (DMSO) at the concentration of 200 μM. […]

T1 sequence (Q5S007 1879-2138 limits assumed): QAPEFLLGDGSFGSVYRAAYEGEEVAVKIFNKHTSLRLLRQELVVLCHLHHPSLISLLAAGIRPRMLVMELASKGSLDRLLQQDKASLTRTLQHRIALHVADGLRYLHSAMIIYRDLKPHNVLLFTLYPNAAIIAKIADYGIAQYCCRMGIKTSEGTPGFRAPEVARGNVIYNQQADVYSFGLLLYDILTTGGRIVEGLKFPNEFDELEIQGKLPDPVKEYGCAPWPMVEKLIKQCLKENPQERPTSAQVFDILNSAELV

| SMILES | IC50 [1] | Kp uu [2] |
| --- | --- | --- |
| Cc1n[nH]c2c1N=C(c1c(F)cccc1F)Nc1c-2cc(N2CCN(CC(C)F)CC2)nc1C (racemic) [Example 20, 8-(2,6-difluorophenyl)-13-[4-(2-fluoropropyl)piperazin-1-yl]-5,11-dimethyl-3,4,7,9,12-pentazatricyclo[8.4.0.02,6]tetradeca-1(10),2(6),4,7,11,13-hexaene] | < 2 nM | 0.2 to 0.4 |
| Cc1n[nH]c2c1N=C(c1c(F)cccc1F)Nc1c-2cc(N2CCN(CCF)C[C@H]2C)nc1C (single isomer, unassigned) [Example 18] | < 2 nM | > 0.4 |
| Cc1n[nH]c2c1N=C(c1c(F)cccc1F)Nc1cnc(-c3cnn(C(F)F)c3)cc1-2 [Example 1, 9-(1-(difluoromethyl)-1H-pyrazol-4-yl)-5-(2,6-difluorophenyl)-3-methyl-1,6-dihydropyrazolo[4,3-d]pyrido[4,3-f][1,3]diazepine] | < 2 nM | 0.2 to 0.4 |
| Cc1n[nH]c2c1N=C(c1c(F)cccc1F)Nc1c-2cc(N2CCN(CC(C)(C)F)CC2)nc1C [Example 5, 5-(2,6-difluorophenyl)-9-(4-(2-fluoro-2-methylpropyl)piperazin-1-yl)-3,7-dimethyl-1,6-dihydropyrazolo[4,3-d]pyrido[4,3-f][1,3]diazepine] | < 2 nM | > 0.4 |
| Cc1n[nH]c2c1N=C(c1c(F)cccc1F)Nc1ccc(N3CCO[C@H](C)C3)cc1-2 [Example 7, (R)-4-(5-(2,6-difluorophenyl)-3-methyl-1,6-dihydrobenzo[d]pyrazolo[3,4-f][1,3]diazepin-9-yl)-2-methylmorpholine] | < 2 nM | 0.2 to 0.4 |
| Cc1n[nH]c2c1N=C(c1c(F)cccc1F)Nc1c-2cc(N2CCOCC2)nc1C [Example 8, 4-[8-(2,6-difluorophenyl)-5,11-dimethyl-3,4,7,9,12-pentazatricyclo[8.4.0.02,6]tetradeca-1(10),2(6),4,7,11,13-hexaen-13-yl]morpholine] | < 2 nM | 0.2 to 0.4 |
| Cc1n[nH]c2c1N=C(c1c(F)cccc1F)Nc1c-2cc(N2CCN(CCF)CC2)nc1C [Example 9, 8-(2,6-difluorophenyl)-13-[4-(2-fluoroethyl)piperazin-1-yl]-5,11-dimethyl-3,4,7,9,12-pentazatricyclo[8.4.0.02,6]tetradeca-1(10),2(6),4,7,11,13-hexaene] | < 2 nM | > 0.4 |
| Fc1cccc(F)c1C1=Nc2c(C(F)F)n[nH]c2-c2cc(N3CCOCC3)ncc2N1 [Example 10, 4-[5-(difluoromethyl)-8-(2,6-difluorophenyl)-3,4,7,9,12-pentazatricyclo[8.4.0.02,6]tetradeca-1(10),2(6),4,7,11,13-hexaen-13-yl]morpholine] | < 2 nM | < 0.2 |
| Cc1n[nH]c2c1N=C(c1c(F)cccc1F)Nc1cnc(-c3ccn(C(F)F)n3)cc1-2 [Example 12, 13-[1-(difluoromethyl)pyrazol-3-yl]-8-(2,6-difluorophenyl)-5-methyl-3,4,7,9,12-pentazatricyclo[8.4.0.02,6]tetradeca-1(10),2(6),4,7,11,13-hexaene] | < 2 nM | < 0.2 |
| Cc1n[nH]c2c1N=C(c1c(F)cccc1F)Nc1ccc(-c3cnn(C(F)F)c3)cc1-2 [Example 13, 9-[1-(difluoromethyl)pyrazol-4-yl]-5-(2,6-difluorophenyl)-3-methyl-1,6-dihydropyrazolo[4,3-d][1,3]benzodiazepine] | < 2 nM | > 0.4 |
| Cc1n[nH]c2c1N=C(c1c(F)cccc1F)Nc1cnc(C#CC3(C)CCOCC3)cc1-2 [Example 17, 8-(2,6-difluorophenyl)-5-methyl-13-[2-(4-methyltetrahydropyran-4-yl)ethynyl]-3,4,7,9,12-pentazatricyclo[8.4.0.02,6]tetradeca-1(10),2(6),4,7,11,13-hexaene] | < 2 nM | 0.2 to 0.4 |
| Cc1n[nH]c2c1N=C(c1c(F)cccc1F)Nc1c-2cc(N2CCN(CC(F)F)CC2)nc1C [Example 19, 13-[4-(2,2-difluoroethyl)piperazin-1-yl]-8-(2,6-difluorophenyl)-5,11-dimethyl-3,4,7,9,12-pentazatricyclo[8.4.0.02,6]tetradeca-1(10),2(6),4,7,11,13-hexaene] | < 2 nM | > 0.4 |
| [2H]C1([2H])OC([2H])([2H])C([2H])([2H])N(c2ccc3c(c2)-c2[nH]nc(C)c2N=C(c2c(F)cccc2F)N3)C1([2H])[2H] [Example 22, 2,2,3,3,5,5,6,6-octadeuterio-4-[5-(2,6-difluorophenyl)-3-methyl-1,6-dihydropyrazolo[4,3-d][1,3]benzodiazepin-9-yl]morpholine] | < 2 nM | < 0.2 |
| Cc1n[nH]c2c1N=C(c1c(F)cccc1F)Nc1c-2cc(N2CCN(CC(F)(F)F)CC2)nc1C [Example 23, 5-(2,6-difluorophenyl)-3,7-dimethyl-9-(4-(2,2,2-trifluoroethyl)piperazin-1-yl)-1,6-dihydropyrazolo[4,3-d]pyrido[4,3-f][1,3]diazepine] | < 2 nM | > 0.4 |
| Cc1n[nH]c2c1N=C(c1c(F)cccc1F)Nc1ccc(N3CCN(CCF)CC3)cc1-2 [Example 25, 5-(2,6-difluorophenyl)-9-[4-(2-fluoroethyl)piperazin-1-yl]-3-methyl-1,6-dihydropyrazolo[4,3-d][1,3]benzodiazepine] | < 2 nM | 0.2 to 0.4 |
| Cc1n[nH]c2c1N=C(c1c(F)cccc1F)Nc1ccc(N3CCO[C@@H](C)C3)cc1-2 [Example 26, (S)-4-(5-(2,6-difluorophenyl)-3-methyl-1,6-dihydrobenzo[d]pyrazolo[3,4-f][1,3]diazepin-9-yl)-2-methylmorpholine] | 2 to 100 nM | 0.2 to 0.4 |
| Cc1n[nH]c2c1N=C(c1c(F)cc(F)cc1F)Nc1ccc(N3CCOCC3)cc1-2 [Example 27, 4-[3-methyl-5-(2,4,6-trifluorophenyl)-1,6-dihydropyrazolo[4,3-d][1,3]benzodiazepin-9-yl]morpholine] | 2 to 100 nM | 0.2 to 0.4 |
| Cc1n[nH]c2c1N=C(c1c(F)cccc1F)Nc1cc(F)c(N3CCOCC3)cc1-2 [Example 28, 4-[5-(2,6-difluorophenyl)-8-fluoro-3-methyl-1,6-dihydropyrazolo[4,3-d][1,3]benzodiazepine-9-yl]morpholine] | 2 to 100 nM | > 0.4 |
| Cc1n[nH]c2c1N=C(c1c(F)cccc1F)Nc1ccc(N3CCOCC3)cc1-2 [Example 29, 4-(5-(2,6-difluorophenyl)-3-methyl-1,6-dihydrobenzo[d]pyrazolo[3,4-f][1,3]diazepin-9-yl)morpholine] | < 2 nM | > 0.4 |
| Cc1n[nH]c2c1N=C(c1c(F)cccc1F)Nc1c(F)cc(N3CCOCC3)cc1-2 [Example 30, 4-(5-(2,6-difluorophenyl)-7-fluoro-3-methyl-1,6-dihydrobenzo[d]pyrazolo[3,4-f][1,3]diazepin-9-yl)morpholine] | < 2 nM | > 0.4 |
| CCc1n[nH]c2c1N=C(c1c(F)cccc1F)Nc1cnc(N3CCOCC3)cc1-2 [Example 31, 4-[8-(2,6-difluorophenyl)-5-ethyl-3,4,7,9,12-pentazatricyclo[8.4.0.02,6]tetradeca-1(10),2(6),4,7,11,13-hexaen-13-yl]morpholine] | 2 to 100 nM | 0.2 to 0.4 |
